Experimental data taken from patent publication US8697701B2, “Solid germicidal composition and disinfection method” (Ueno Fine Chemicals Industry, Ltd., priority 2012, dated 2014).

Columns and labels:
[1] = cited from earlier work
[2] = test system: Serratia marcescens (bacterium 1 isolated from a food factory); conditions: preliminary test, sensitization time 5 minutes
Procedure: The following sample bacterium (i) isolated from a food factory was cultured in a BHI bouillon medium at 30° C. for 24 hours. A 0.03 ml of a liquid obtained by diluting the cultured bacterium with a physiological saline solution to the concentration on the order of 10^6 cfu/ml was mixed with respective 3 ml of aqueous solutions, each of which was obtained by diluting an aqueous solution of the above solid germicidal composition (1.0% by weight) with sterile water so that the concentration of the solid germicidal composition would be 0.01, 0.02 and 0.04% by weight, respectively. The obtained mixture was then left at 25° C. for 5 minutes. After sensitization time elapsed, stirring was carried out again. One platinum loop of each mixture was taken and inoculated in 10 ml of a BHI bouillon medium. The medium was incubated at 30° C. for 48 hours. A BHI bouillon medium without inoculation of the bacterium was used as a reference, and turbidity of the medium was compared with the reference by visual inspection to determine the germicidal effect of the aqueous solution of the solid germicidal composition on the bacterium.
Sample Bacterium (i): Serratia marcescens (Bacterium 1 Isolated from a Food Factory)

[3] = test system: Serratia marcescens (bacterium 2 isolated from a food factory); assay: Test for inhibition of drug resistance development (repeated MIC, broth microdilution); format: cell-based; conditions: sample bacteria (iii) and (iv), eight MIC rounds, as compared to DDAC
Procedure: According to the standard method (broth microdilution method) of Japanese Society of Chemotherapy, minimal inhibitory concentration (MIC) was continuously measured. The compositions shown in Table 7 were diluted with sterile water to obtain drug solutions with a concentration of the composition of 0.007 to 1.792% by weight, and a nutrient broth medium adjusted to a concentration twice as high as the specified concentration (manufactured by Eiken Chemical Co., Ltd., normal bouillon medium ‘Eiken’ E-MC35) was added thereto in an amount equal to the drug solution. The obtained mixture was stirred and then dispensed to a microtiter plate (96 well) in an amount of 150 μl/well. […] The diluted culture was then seeded in an amount of 7.5 μl/well to the microtiter plate containing the medium prepared as described above. The plate was incubated in a constant temperature oven at 30° C. for 48 hours, the growth of the bacterium was checked by visual inspection, and MIC was determined. […] Using the diluted culture, MIC was determined again in the same manner as described above. MIC was determined eight times in total by repeating the above procedure, and changes in MIC were confirmed.
Sample Bacterium (iii): Serratia marcescens (Bacterium 2 Isolated from a Food Factory)

Row | Compound | solubility in water at 20° C. [1] | further results
1 | O=C(O)/C=C/C(=O)O [Fumaric acid] | (solubility 0.51%) | –
2 | O=C(O)CC(O)C(=O)O (stereo not shown) [Malic acid] | (solubility 55.8%) | –
3 | CCCCCCCCCC[N+](C)(C)CCCCCCCCCC.[Cl-] [didecyl dimethyl ammonium chloride] | – | maximum concentration up to which proliferation of sample bacterium (i) was not inhibited [2]: > 80 ppm
4 | CCCCCCCCCC[n+]1ccn(CCCCCCCCCCn2cc[n+](CCCCCCCCCC)c2C)c1C.[Cl-].[Cl-] [1,10-di(3-decyl-2-methylimidazolium)decane dichloride] | – | development of drug-resistant microorganisms [3]: hardly developed
